The values that follow come from publication PMC5004293, “Characterization of FRM-36143 as a new γ-secretase modulator for the potential treatment of familial Alzheimer’s disease” (Alzheimer's Research & Therapy, 2016).

Molecules are shown by their SMILES. Where two headings read alike, the source gives them in different places.

The subject of series [1] is γ-secretase. Description: Aβ peptide ELISA in H4 cells stably expressing wild-type human APP751. Type of series: cell-based. As for the experimental part: Human neuroglioma H4 cells stably expressing wild-type human APP751 were used for this assay. Briefly, cells were plated at 15,000 cells/well in 96-well plates and left to settle for 6 h (37 °C; 5 % CO2). Cells were then washed three times with Pro293™ chemically defined medium (Lonza, Walkersville, MD, USA) followed by the addition of the compound (0.3 % final DMSO). Plates were incubated overnight, and the supernatant was removed for quantification of Aβ peptides by sandwich enzyme-linked immunosorbent assay (ELISA) (see below). Cytotoxicity was evaluated using Cell-Titer 96 W AQueous One Solution Cell Proliferation Assay (MTS Assay, Promega) according to the manufacturer’s protocol.
(§1) Aβ peptide levels were quantified by sandwich ELISA using anti-Aβ38, anti-Aβ40, anti-Aβ42, (BioLegend, Dedham, MA, USA) or anti-Aβ37 for the capture and 4G8-horseradish peroxidase (HRP; BioLegend) for detection. When measuring Aβ37 and Aβ38, 4G8-HRP was added to the sample for overnight incubation, whereas it was added after the overnight incubation for 1 h for Aβ40 and Aβ42 measurements.
(§2) For cell-based assays, freshly collected samples of cultured cell supernatant were added to the plates and incubated at 4 °C for about 24 h. Detection was performed using SureBlue 3,3’,5,5’-tetramethylbenzidine (TMB) peroxidase substrate (KPL, Inc., Gaithersburg, MD, USA) and the plates read on a SpectraMax M5e microplate reader (Molecular Devices, Inc., Sunnyvale, CA, USA). GSM-treated samples were normalized to samples treated with DMSO alone (100 %) and 5 μM GSI, DAPT (0 %; Sigma-Aldrich). EC50 values were calculated from values reported as percentage of DMSO using nonlinear regression, based on a sigmoidal dose–response (variable slope) model.
Background: ELISA stands for enzyme-linked immunosorbent assay.

For series [2], the target named is T1, γ-secretase (Homo sapiens, UniProt P49768).
T1 construct: expressed in transfected cells; host or cells: HEK cells stably expressing APPsw and WT PS1
Kind of series: Aβ in media and intracellular small peptides of HEK cells expressing APPsw and WT presenilin. Format: cell-based. To be noted: HEK APPsw, 1 μM. As for the experimental part: as §1, §2
The extractions were performed according to the methods described by Okochi et al.. Briefly, human embryonic kidney (HEK) cells stably expressing APPsw and PS1 derivatives were cultured to confluence in 10-cm dishes and the media replaced on the day of the experiment. […] Conditioned media were collected and cells were washed with ice-cold PBS and then immediately boiled for 2 min. A monitoring peptide (IVTL) and protease inhibitors were then added to the boiled samples, which were sonicated for 5 s three times and centrifuged at 100,000 × g for 1 h. The resultant supernatants were precipitated with TCA on ice for 15 min, centrifuged at 100,000 × g for 1 h, and filtered before being subjected to LC-MS/MS analysis to measure the tri-, tetra-, and pentapeptides as described elsewhere.

In series [3] the test system is γ-secretase. Kind of series: Population PK/PD modeling of mouse brain Aβ42 reduction. To be noted: population PK/PD model, mice. Format: in vivo. As to the method: (§3) Mice and rats were maintained on 12/12 h light/dark cycle with food available ad libitum. Drug treatment was prepared in a vehicle of 1 % carboxymethylcellulose (CMC):Tween80 (99.5:0.5). Twelve-week-old wild-type male mice (129S6, Taconic Biosciences, Hudson, NY, USA) or rats (Wistar, Charles River Laboratories) were administered compound p.o. without prior fasting and euthanized by CO2 asphyxiation at specified times post-dosing. After extraction of the brain, the olfactory bulb and hindbrain were removed and the cerebral hemispheres separated (mice) or cut in 4 pieces (rats). The cerebellum was removed for bioanalysis of the compound. CSF was collected from the cisterna magna and blood from a cardiac puncture.
A population pharmacokinetic/pharmacodynamic (PK/PD) analysis was performed to obtain maximal efficacy (Emax) and concentration leading to 50 % of Emax (EC50) using the Phoenix® NLME™ (NonLinear Mixed Effect) program (version 6.3, Certara USA, Inc., St. Louis, MO). The goodness of fit was assessed based on visual inspection of curve fitting, Akaike’s information criterion (AIC), and precision of parameter estimation.

Series [4] in a line: Compound exposure in rats (LC-MS/MS, brain tissue binding). Type of series: in vivo. To be noted: Wistar, oral, rat, 30 mg/kg, 6 h post-dose. As to the method: as §3
Cerebellums were homogenized in a Mini-BeadBeater (Biospec Products, Inc., Bartlesville, OK, USA). Brain samples, plasma, and CSF were prepared for LC-MS/MS by precipitating proteins with acetonitrile and vacuum filtration in the presence of an internal standard. Standards were prepared in the corresponding matrix. FRM-36143 was resolved by HPLC (Shimadzu) using a reverse-phase C18 Kinetex column (30X2.1 mM; Phenomenex, Torrance, CA, USA). […]
The unbound fraction in brain homogenate (fu,b) was determined in triplicate in the Rapid Equilibrium Dialysis device (8000 Da molecular weight cut-off membrane, Thermo Scientific/Pierce Biotechnology, Rockford, IL, USA). […]

Usually EC50 stands for the midpoint of the concentration-response curve. A word on the EC90: it is the point of the concentration-response curve where the effect stands at 90%. A lower EC90 goes with an effect from little substance. For `COc1nc(C2=NOC[C@H](c3cc4ccccc4o3)N2)ccc1-n1cnc(C)c1` [FRM-36143, (R)-5-(benzofuran-2-yl)-3-(6-methoxy-5-(4-methyl-1H-imidazol-1-yl)pyridin-2-yl)-5,6-dihydro-4H-1,2,4-oxadiazine], the EC50 in the series with γ-secretase [1] (H4 APP751 cells, overnight, ELISA, read-out: EC50 for Aβ37) is 186 nM; in the series on γ-secretase [1] (H4 APP751 cells, overnight, ELISA, read-out: EC50 for Aβ38) it was 38 nM; with γ-secretase [1] (H4 APP751 cells, overnight, ELISA, read-out: EC50 for Aβ40), 167 nM; with γ-secretase [1] (H4 cells expressing human WT APP751, overnight treatment, ELISA of conditioned media, read-out: EC50 for Aβ42) it was 35 nM; with γ-secretase [1] (range over H4 cells and primary neurons, read-out: EC50 to reduce Aβ42 levels in cells), 35 to 53 nM; with γ-secretase [3] (30 mg/kg, unbound plasma concentration, 2.5–97.5 % CI 4.6–151 nM, read-out: In vivo EC50 for Aβ42), 78 nM. Besides, the 90% effect level in the series with γ-secretase [1] (assay not stated, compared with unbound brain concentration) (EC90) was put at 383 nM. Besides, the “Aβ42 concentration in the media” value at γ-secretase [2] (2 h, DMSO 154 ± 2) stood at 105 ± 2 pM. The “Aβ38 concentration in the media” value on γ-secretase [2] (2 h, DMSO 750 ± 62) was 1548 ± 39 pM. In addition, on γ-secretase [2] (2 h, DMSO 4021 ± 132), the “Aβ40 concentration in the media” value is 3477 ± 120 pM. The “Aβtotal concentration in the media (Aβ38 + Aβ40 + Aβ42)” value on γ-secretase [2] (2 h, DMSO 4925 ± 185) came to 5130 ± 92 pM. Moreover, the “Intracellular production of small peptides VVIA and VVIAT (fourth cleavage step)” value at γ-secretase [2] (LC-MS/MS) was “increases the production of VVIA and VVIAT”. In addition, the “Maximal brain Aβ42 reduction (Emax)” value in the series with γ-secretase [3] (30 mg/kg data) turned out to be 51%. In addition, in the series on γ-secretase [3] (30 mg/kg data only, CV: 15 %), the “Emax for effect on brain Aβ42” value is given as 0.51. Also, the concentration at 6 h was 122 nM in series [4] (CSF, read-out: CSF concentration) and 156 nM in series [4] (brain (unbound), calculated using brain tissue binding, read-out: Unbound brain exposure).
